Source: BindingDB's records for PubMed 2078271 (Sorbonne University, 1990)

Biological target: T1, 5-hydroxytryptamine receptor 1A (Homo sapiens, UniProt P08908)
T1 sequence (P08908 whole entry): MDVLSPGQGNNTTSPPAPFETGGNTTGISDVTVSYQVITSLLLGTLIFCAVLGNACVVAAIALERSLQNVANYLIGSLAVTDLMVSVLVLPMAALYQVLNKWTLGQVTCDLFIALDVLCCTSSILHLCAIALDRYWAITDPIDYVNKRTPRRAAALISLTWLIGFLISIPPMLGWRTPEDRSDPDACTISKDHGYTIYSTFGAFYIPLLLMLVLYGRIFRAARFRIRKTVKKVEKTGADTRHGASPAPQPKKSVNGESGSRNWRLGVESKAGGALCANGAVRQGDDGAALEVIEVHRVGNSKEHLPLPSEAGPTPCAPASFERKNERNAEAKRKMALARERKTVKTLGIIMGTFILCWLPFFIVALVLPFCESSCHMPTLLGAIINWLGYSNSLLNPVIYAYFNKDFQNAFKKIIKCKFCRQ

SMILES | Ki [nM]
COc1ccccc1N1CCN(CCN(C(=O)c2ccc(I)cc2)c2ccccn2)CC1 | 0.32
CC(C)(C)NCC(O)COc1ccccc1C1CCCC1 (single isomer, unassigned; (-)) [NSC_37464] | 8
CC(C)(C)NCC(O)COc1cccc2c1SCCC2 (single isomer, unassigned; (-)) [TERTATOLOL(-)] | 10
O=C1c2ccccc2S(=O)(=O)N1CCCCN1CCN(c2ncccn2)CC1 [1,1-Dioxo-2-[4-(4-pyrimidin-2-yl-piperazin-1-yl)-butyl]-1,2-dihydro-1lambda*6*-benzo[d]isothiazol-3-one] | 10
COc1c(O)c(O)cc2c1CC(N)CC2 (stereo not drawn) [5-OME-3-ADTN] | 1
FC(F)(F)c1cccc(C2=CCN(CCc3ccc4ccccc4c3)CC2)c1 [CAS_90494-79-4] | 2
Clc1cnn(CCCCN2CCN(c3ncccn3)CC2)c1 [CAS_132449-46-8] | 50
COC(=O)c1cc2c(N3CCN(CCCCN4C(=O)c5ccccc5S4(=O)=O)CC3)cccc2[nH]1 [CAS_141533-35-9] | 0.7
O=C(NCCN1CCN(c2cccc3c2OCC(CO)O3)CC1)c1ccc(F)cc1 (stereo not drawn) [FLESINOXAN] | 3
CCCN(CCC)CCc1c[nH]c2ccc(C(N)=O)cc12 [NN-DIPROP-5-CT] | 0.2
CCCN(CCCCN1C(=O)CC2(CCCC2)CC1=O)C1COc2cccc(OC)c2C1 (stereo not drawn) [NSC_121851] | 0.2
COc1ccccc1N1CCN(CCCNc2c(C)c(=O)n(C)c(=O)n2C)CC1 [Urapidil-5-methyl] | 0.35
COc1ccccc1N1CCN(C[C@@H](C(=O)NC(C)(C)C)c2ccccc2)CC1 [WAY 100135] | 20
